Measured values from paper PMC4341462, “Human RNASET2 derivatives as potential anti-angiogenic agents: actin binding sequence identification and characterization” (Oncoscience, 2014).

Key:
HUVECs = assay: Immunofluorescence: localization and co-localization of peptide and angiogenin in HUVECs; type: cell-based, human; conditions: anti-angiogenin (red)
Protocol: Cells were cultured on PBS-covered slides in 12-well plates with 0.1% pork gelatin (Sigma-Aldrich) and were incubated with peptide K108-K133 or angiogenin. Cells were fixed with 3% Paraformaldehyde (PFA) (Merck Millipore, Dermstadt, Germany) containing 0.5% triton, washed three times with PBS and blocked with 5% donkey serum (Jackson ImmunoResearch). Rabbit anti-angiogenin (Merck Millipore) was added (1:100 dilution; prepared in 5% donkey serum) and incubated overnight at 4°C. After washing three times with TBST, the slides were incubated for 1 h with Alexa 488-conjugated anti-rabbit antibody (Invitrogen Life Technologies) and phalloidin tetramethylrhodamine B isothiocyanate–conjugated […] (Sigma-Aldrich), and then washed, and mounted with a mixture containing 30% mounting medium, 4′,6-diamidino-2-phenylindole (DAPI) (Santa Cruz Biotechnology Inc., Santa Cruz, CA) and 70% fluoromount (Sigma-Aldrich). The slides were viewed under a Leicactr4000 laser scanning confocal microscope.

[1] = biological target: T1, Actin from rabbit muscle (Sigma A2522) (Oryctolagus cuniculus, UniProt P68135); assay: Surface plasmon resonance (BIAcore 3000) of actin binding; conditions: actin on CM5 chip, amine coupling, 5 concentrations, 10 μl/min, 25°C
T1 construct: purchased Sigma A2522; host or cells: rabbit muscle (tissue-purified)
Protocol: SPR was performed on a BIAcore 3000 instrument (BIAcore, Uppsala, Sweden). Actin was diluted in 100 mM CH3COONa pH 4.6 to a final concentration of 20μg/ml (200μl total) resulting in ~1ng immobilized actin on a CM5 BIAcore sensor chip (GE Healthcare Bio-Sciences AB) using the standard BIAcore amine coupling chemistry protocol. The CM5 chip allows four separate flow cells to be operated in the BIAcore 3000 instrument used in these experiments. Coupling is achieved by activating the surface of the sensor chips with equal volumes of 50 mM N-hydroxysuccimide (NHS)/200 mM Nethyl-N-(3-[…])-carboiimide (EDC) (BIAcore, AB, Uppsala, Sweden) to form activated carboxyl groups. In the BIAcore protocol the binding is believed to be between carboxyl groups on the surface and amine groups on the protein. The actin solution (15 μg/ml) was then run over the chip for 5 min at a rate of 10 μl/min, where the amine groups on protein react with the activated esters. In the final stage of immobilization, the surface was blocked by 1M ethanol amine, pH 8.0. The binding assay was performed by injecting the hRNASET2, trT2-50, trT2-50m or peptides solutions in running buffer (HBS-10mM Hepes, 150mM Sodium Chloride, 3mM EDTA, 0.005% Polysorbate 20) at 5 different concentrations at a flow rate of 10 μl/min at 25°C. Injections were performed simultaneously over all four channels and blank surface a plain dextran matrix (channel 1) was used as control. The net signal was obtained by subtracting the blank signal from the signal of the immobilized surface. The association phase for protein or peptides binding to actin was followed for 4 min, and dissociation phases were monitored for 3 min. Surface regeneration between consecutive binding cycles included a 1 min injection of 1 mM NaOH. The response was monitored as a function of time (sensorgram) at 25°C. Multi-concentration data were globally fit using BIA evaluation 3.2 software.
The strength of a two molecule interaction is characterized by the equilibrium dissociation (binding) constant KD =[P][L]/[PL], where [P] is the concentration of free protein (or peptide), [L] the concentration of ligand and [PL] the concentration of the complex. At equilibrium, KD is related to the rate of complex formation (described by the association rate constant, ka) and the rate of breakdown (described by the dissociation rate constant, kd ), such that KD =[…]. A high affinity interaction is characterized by a low KD, rapid recognition and binding by high ka, and stability of complex formation by low kd.

actin = actin (Oryctolagus cuniculus, UniProt P68135); assay: Actin binding solid phase assay (ELISA); conditions: from 500 ng/well, 1 h at 37°C, discussion also refers to BIAcore
Text: For further insight on the actin binding site within the hRNASET2 protein sequence we tested 29 suspected peptides for their ability to bind actin. The actin-binding capability of the 29 synthetic peptides was compared to the binding capability of trT2-50 using a solid phase actin binding assay. […] We next tested the interaction kinetics to evaluate the interaction nature as described for trT2-50 and trT2-50m. […] In addition, there is a linear relation between the protein concentration and the maximal (steady-state) response for peptides A103-Q159 and K108-K133, indicating the pseudo-first-order regime in relation to the immobilized actin.
96-well plates (MaxiSorp® flat-bottom 96-well plate, Fisher Scientific Inc., Fair Lawn, NJ) were coated with 500 ng actin in 100 μl carbonate-bicarbonate buffer (pH 9.5) for 1 h at 37°C. The plate was washed once with TBS and then blocked with 3% BSA in 200 μl TBS buffer at 37°C, for 1 h. Wells were then washed once with 250 μl TBS. trT2-50, trT2-50m or each of the 29 peptides were added at 1:2 dilutions in 100 μl TBS, starting from 500 ng/well, incubated for 1 h at 37°C and then washed three times with TBS containing 0.1% Tween-20 (TBST). […] Absorbance at 655 nm was measured 10 min thereafter using a Power Wave 200 Microplate Scanning Spectrophotometer (Bio-Tek Instrument, Winooski, VT). Affinity was evaluated by double reciprocal plot.

[2] = system: HUVEC (angiogenin-induced tube formation); assay: HUVEC tube formation assay on Matrigel, angiogenin-induced; type: cell-based, human; conditions: 2 μM, angiogenin 1 μg/ml, 8 h, vs PBS control, N=5
Protocol: (§1) Figure 4 trT2-50m and peptides A103-Q159 (57aa) and K108-K133 (26aa) inhibit angiogenin- and VEGF-induced HUVEC tube formation on Matrigel Freshly isolated HUVECs were plated in a 96-well plate previously coated with Matrigel. (A): Cells were treated with either peptide A103-Q159, K108-K133 or K108-L123 (2μM) or PBS (control), in addition to angiogenin or VEGF (1 μg/ml). (B): tube formation was assessed using Image J, the results are represented as percent of control. […] (C): Cells were treated with trT2-50m (2μM) or PBS (control), in addition to angiogenin or VEGF (1 μg/ml).
(§2) Freshly isolated HUVEC were maintained in endothelial cell growth medium (EGM) supplemented with SingleQuots (EGM BulletKit CC-3124, Lonza). They were then plated in a 96-well plates (14 × 10^3 cells/well) previously coated with growth factor-depleted Matrigel (Becton-Dickinson, Bedford, MA) in M199 medium supplemented with 20% FBS, 1% glutamine, 1% antibiotic–antimycotic solution (Biological Industries) and 50 U/100 ml heparin (Biomedical Technologies Inc., Stoughton, MA). Cells were treated with trT2-50m (2 μM), peptides or PBS, in addition to angiogenin (R&D Systems, Inc. Minneapolis, MN), or VEGF (Protein Laboratories, Rehovot, Israel) (1 μg/ml each). After 8 h of incubation at 37°C, the plates were photographed and the extent of tube formation was counted using Image J (NIH, Bethesda, MD) software. […]

[3] = system: HUVEC (VEGF-induced tube formation); assay: HUVEC tube formation assay on Matrigel, VEGF-induced; type: cell-based, human; conditions: 2 μM, VEGF 1 μg/ml, 8 h, vs PBS control, N=5
Protocol: as §1, §2

CAM = assay: Ex ovo CAM angiogenesis assay; type: in vivo, chicken; conditions: 3 μg on filter paper disk every day for 4 days from day 8, vs PBS; N=3 for hRNASET2 and trT2-50, N=5 for peptides and PBS
Protocol: In this assay we used fertilized eggs cracked into a petri dish after […] of incubation in 37°C and 60% humidity. In the following days, the embryos developed a vascular network. Treatment began on the eighth day of incubation and was delivered drop-wise onto disks of Whatman paper that had been placed on the developing vascular regions. The treatment was performed every day for 4 days. The number of blood vessels around the treated disk was counted every day.
Fertilized chicken eggs were incubated horizontally at 37°C and humidity of 60 - 62% and cracked into Petri dishes at embryonic day 4. Incubation was continued under the same conditions. On day 8, sterile filter paper disks (5.5 mm in diameter) were layered on top of the CAM and soaked either with 5 μl PBS or 3 μg hRNASET2, trT2-50, peptide A103-Q159 or peptide K108-K133. Treatment was given every day for four days, then, the number of blood vessels around the treated disks was counted. (For hRNASET2 and trT2-50, N=3; for peptide A103-Q159, peptide K108-K133 and PBS, N=5).

Question: Which results are given for “angiogenin: angiogenin (R&D Systems, Inc. Minneapolis, MN)”?
Answer: localization of angiogenin in presence of peptide K108-K133 (HUVECs; 2 and 8 h of incubation with the peptide and angiogenin): Same angiogenin localization was observed after 2 and 8 h; localization of angiogenin in presence of peptide K108-K133 (HUVECs; 10 min of incubation with the peptide and angiogenin): located in the nucleus, the cytoplasm surrounding the nucleus, on the actin fibers and outside the cell

Question: What does the source list for `CC[C@H](C)[C@H](NC(=O)CNC(=O)[C@H](CC(C)C)NC(=O)[C@H](CCCCN)NC(=O)[C@H](CC(C)C)NC(=O)[C@H](CC(C)C)NC(=O)[C@@H](NC(=O)[C@H](CO)NC(=O)[C@H](CC(N)=O)NC(=O)[C@H](CC(C)C)NC(=O)[C@H](CC(=O)O)NC(=O)[C@H](CC(C)C)NC(=O)[C@H](CCC(=O)O)NC(=O)[C@H](CCCNC(=N)N)NC(=O)[C@H](Cc1ccc(O)cc1)NC(=O)[C@H](CC(C)C)NC(=O)[C@H](CCC(=O)O)NC(=O)[C@H](CC(C)C)NC(=O)[C@H](CO)NC(=O)[C@H](CCCNC(=N)N)NC(=O)CNC(=O)[C@H](Cc1ccccc1)NC(=O)[C@H](Cc1ccc(O)cc1)NC(=O)[C@H](CCCCN)NC(=O)[C@@H](N)CCCCN)C(C)C)C(=O)N[C@@H](CCCCN)C(=O)O` [Peptide K108-K133]?
Answer: kon ([1]; HBS (10mM Hepes, 150mM NaCl, 3mM EDTA, 0.005% Polysorbate 20), association 4 min, dissociation 3 min, global fit BIAevaluation 3.2, read-out: association rate Ka): 14200 M⁻¹ s⁻¹; koff ([1]; HBS (10mM Hepes, 150mM NaCl, 3mM EDTA, 0.005% Polysorbate 20), dissociation 3 min, global fit BIAevaluation 3.2, read-out: dissociation rate Kd): 0.0458 s⁻¹

Question: For “Peptide K108-L123: peptide K108-L123 (16 aa) that failed to bind actin”, which “ability to bind actin (in words)” value (actin) is on record?
Answer: The value was “failed to bind actin”.

Question: And the “inhibition of angiogenin-induced tube formation (in words)” value [2]?
Answer: Its value is “unable to inhibit tube formation”.

Question: What about the “inhibition of VEGF-induced tube formation (in words)” value [3] of the same compound?
Answer: The value was “unable to inhibit tube formation”.

Question: How did the “association rate Ka” value ([1]; HBS (10mM Hepes, 150mM NaCl, 3mM EDTA, 0.005% Polysorbate 20), association 4 min, dissociation 3 min, global fit BIAevaluation 3.2) turn out when “hRNASET2: full-length human RNASET2, produced in CHO, T2BIOTECH Ltd” was run?
Answer: The value was 2.40 × 10^3 (1/Ms).

Question: And the “dissociation rate Kd” value ([1]; HBS (10mM Hepes, 150mM NaCl, 3mM EDTA, 0.005% Polysorbate 20), dissociation 3 min, global fit BIAevaluation 3.2)?
Answer: The value was 0.00346 s⁻¹.

Question: And the Kd ([1]; HBS, determined from kinetic analyses, BIAevaluation 3.2, read-out: dissociation constant KD)?
Answer: Its Kd is 1440 nM.

Question: And the “blood vessels around the treated disk” value (CAM)?
Answer: The value was “fewer blood vessels developed compared to the control”.
